Experimental data: US6913695B2, “Sanitization of chromatographic media” (Bayer HealthCare LLC, priority 2003, dated 2005)
Counter-ions that a name gives are not always drawn.

Columns and labels:
[1] = tested on: porcine parvovirus; PPV; assay: Porcine parvovirus clearance and sanitization across the benzamidine-SEPHAROSE column (TCID50 titration on MPK cells); format: cell-based
[2] = tested on: bovine viral diarrhea virus (BVDV); assay: Column sanitization after viral clearance run, BVDV; format: cell-based; conditions: column treated with 7.2 M guanidine hydrochloride, pH 3.0, after a viral clearance run
Protocol: Solutions tested included a variety of alcohols, detergents, and chaotropic agents including guanidine hydrochloride (Table 2). […] A series of experiments were performed to identify conditions under which 8 M guanidine hydrochloride would stay in solution. […] Additionally, when mixed with virus (1 part virus:9 parts acidic guanidine hydrochloride; final guanidine hydrochloride concentration=7.2 M) inactivation to the limit of detection occurred within 30 minutes at 4° C. Similar experiments were carried out treating the benzamidine-SEPHAROSE column with 7.2 M guanidine hydrochloride, pH 3.0, following a viral clearance evaluation run.

[3] = tested on: porcine parvovirus (PPV); assay: Inactivation of PPV in solution by test solutions (TCID50 titration); format: cell-based
[4] = tested on: PrP^Sc; conditions: pH 3

Structure (SMILES): N=C(N)N [guanidine hydrochloride]
- inactivation of chromatographic column-associated virus (benzamidine-SEPHAROSE resin) ([1]; 7.2 M guanidine hydrochloride, pH 3.0): can be inactivated
- virus inactivation on the benzamidine-SEPHAROSE column ([1]; PPV, column treated with 7.2 M guanidine hydrochloride, pH 3.0, after a viral clearance run): inactivation to the limit of assay detection
- virus inactivation on the benzamidine-SEPHAROSE column [2]: inactivation to the limit of assay detection
- time to inactivation to the limit of detection ([3]; 1 part virus:9 parts acidic guanidine hydrochloride, final concentration 7.2 M, 4° C.): ≤ 30 min
- inactivation of virus in solution ([3]; 4 M guanidine hydrochloride, pH 3.0): effective viral inactivation
- inactivation of virus in solution ([3]; 6.5 M guanidine hydrochloride, pH 4.0, 4° C.): inactivation of virus
- killing of virus (PPV) ([3]; 8 M guanidine hydrochloride, room temperature, initial screen): effective at killing virus to the detection limit of the assay
- decrease in PrP^RES immunoreactivity, as compared to the non-treated control [4]: ≥ 2.5 log
- precipitation (8 M guanidine acidified to pH 4.0 or 3.0, 4° C.): did not precipitate
- precipitation at the lower temperature (8 M guanidine, not acidified, 4° C.): precipitation occurred
